One data set has as its system Wiga Wistar rats. Nature of the data set: Reversal of LY-404039-induced decrease of palpebral opening in apomorphine-challenged rats. The class given is in vivo. The following applies: Rattus norvegicus, PO, criterion: cumulative palpebral opening score >26, read-out: ED50 APO LY-404039. On the procedure:
B) In Vivo Pharmacology 1) Reversal of LY-404039-induced Decrease of Palpebral Opening in Apomorphine-challenged Rats.
Male Wiga Wistar rats (Crl:WI; Charles River Germany; 220±40 g) were housed under standard laboratory conditions (21±2° C.; 50-65% relative humidity; light-dark cycle set at 12 h; lights on at 6.00 h) and fasted overnight prior to the start of the experiments (tap water remained available ad libitum). During the test period, they were housed in individual cages. Palpebral opening was scored every 5 min over the first hour after injection of apomorphine (1.0 mg/kg, i.v.) in animals either pretreated or not pretreated with LY-404039 (2.5 mg/kg, s.c.) at 1 h prior to the apomorphine injection. The animals were also pretreated with test compound or solvent at a predefined interval before apomorphine challenge. The score system was: (5) exophthalmos, (4) wide open, (3) open for three-quarters, (2) half open, (1) open for one-quarter, (0) closed. The scores for palpebral opening were cumulated over the 60-min observation period. A cumulative palpebral opening score>26 was selected for drug-induced reversal of the LY-404039-induced decrease of palpebral opening (occurrence in 3.2% of control animals pretreated with LY-404039 (n=154) versus in 99.5% of control rats not pretreated with LY-404039 (n=6335)). […]

Another data set can be described thus: Induction of mydriasis. Particulars: Wiga, rat, in vivo, PO, rats. As for the experimental part: 3) Induction of Mydriasis
The pupil diameter of Wiga rats was measured with a microscopic micrometer (1 unit= 1/24 mm). Criteria for drug-induced effects: pupil diameter>25 units for mydriasis (in controls: 1.9%) 1 h post-administration of the test compound (test 1) or 1, 2 or 3 h post-administration of the test compound (test 2, wherein the maximum pupil diameter over the full 3 h period is reported).

Molecules are shown by their SMILES.

Broadly, the ED50 is the midpoint of the dose-response relation. By melting point is commonly meant the temperature of the solid-liquid transition. `Cc1ncc(-c2cnn3c2C(=O)N(c2ccc(C(F)(F)F)c(Cl)c2)C[C@@H]3C)[nH]1` [Compound 27]: the melting point is 188.27 °C. For the same molecule, in the data set on Wiga Wistar rats, the median effective dose (ED50) is 0.2 mg/kg. Besides, the ED50 in the data set “Induction of mydriasis” (maximum pupil diameter >25 units over 1, 2 or 3 h post-administration, read-out: ED50 MYD Test 2) was over 40 mg/kg. In addition, the ED50 at 1 h in the data set “Induction of mydriasis” (pupil diameter >25 units 1 h post-administration, read-out: ED50 MYD Test 1) is over 10 mg/kg.
